{"source": "patent US8653052B2", "about": "“Drug combination and its use in the treatment of muscle loss” (Acacia Pharma Limited, priority 2007, dated 2014)", "key": {"[1]": {"system": "tumour bearing rats (AH-130 Yoshida ascites hepatoma)", "test": "Yoshida AH-130 rat ascites hepatoma cachexia model, initial experiment: total food intake", "assay_type": "in vivo", "settings": "at day 3, racemic formoterol 10 μg/kg/day, alone or with megestrol acetate 100 mg/kg/day", "source_text": "This study involves the use of the Yoshida AH-130 rat ascites hepatoma model, which is a particularly suitable model system for studying the mechanisms involved in the establishment of cachexia. Its growth in the host causes rapid and progressive loss of bodyweight and tissue wasting, particularly in skeletal muscle. […] Co-administration of each of these β2 agonists with the progestin, megestrol acetate, is also investigated.\nWistar rats weighing about 100 g are used (Busquets et al 2004, Cancer Res 64:6725-6731). The animals are maintained on a regular light-dark cycle (light from 08.00 am to 8.00 pm) with free access to food and water. Their diet consists of 54% carbohydrate, 17% protein and 5% fat, and the food intake is measured daily. Rats are given an intraperitoneal inoculum of 10^8 AH-130 Yoshida ascites hepatoma cells obtained from exponential tumours.\nThe animals were divided into groups: those receiving the test drugs and those receiving vehicle. Drug administration is by subcutaneous injection. Seven days after tumour transplantation, the animals are weighed and anaesthetised with a ketamine/xylacine mixture. The tumour is harvested from the peritoneal cavity, and its volume and cellularity evaluated. […]\nIn an initial experiment, the tumour bearing rats were divided into three groups. […] The rats were monitored over a 3 day period."}, "[2]": {"settings": "as reported in U.S. Pat. No. 5,449,694; cited from earlier work"}, "cancer patients": {"system": "cancer patients", "settings": "cited from earlier work; for Effect on appetite, calorie intake and nutritional status: several clinical trials"}}, "note": "Where a name gives a salt, the structure may show the parent alone."}
{"smiles": "COc1ccc(CC(C)NCC(O)c2ccc(O)c(NC=O)c2)cc1", "note": "(racemic) [racemic formoterol, (±)-N-[2-Hydroxy-5-[1(R*)-hydroxy-2-[1(R*)-methyl-2-(4-methoxyphenyl)ethylamino]ethyl]phenyl]formamide fumarate (2:1) monohydrate]", "values": [{"measurement": "Total food intake", "setting": "[1]", "value": "45±2", "unit": "g/100 g rat"}]}
{"smiles": "C[C@@H](NCCc1ccc(O)cc1)[C@@H](O)c1ccc(O)cc1.Cl", "note": "(single isomer, unassigned) [(−)-ritodrine]", "values": [{"measurement": "Relative potency of enantiomers", "setting": "[2]", "value": "more potent enantiomer"}]}
{"smiles": "CC(=O)O[C@]1(C(C)=O)CC[C@H]2[C@@H]3C[C@H](C)C4=CC(=O)CC[C@]4(C)[C@H]3CC[C@@]21C", "note": "[medroxy-progesterone acetate]", "values": [{"measurement": "Effect on appetite, calorie intake and nutritional status", "setting": "cancer patients", "value": "improve appetite, calorie intake and nutritional status"}]}
{"smiles": "CC(=O)O[C@]1(C(C)=O)CC[C@H]2[C@@H]3C=C(C)C4=CC(=O)CC[C@]4(C)[C@H]3CC[C@@]21C", "note": "[megestrol acetate]", "values": [{"measurement": "Cancer patients treated with a weight gain of greater than 5%", "setting": "cancer patients; cancer patients, significant component of the gain due to fat", "value": 15, "unit": "%"}, {"measurement": "Effect on appetite, calorie intake and nutritional status", "setting": "cancer patients", "value": "improve appetite, calorie intake and nutritional status"}]}
